pIC50: −log10 of the molar value.

This experiment has as its target T1, Pantetheinase (Homo sapiens, UniProt O95497).
T1 sequence (O95497 whole entry): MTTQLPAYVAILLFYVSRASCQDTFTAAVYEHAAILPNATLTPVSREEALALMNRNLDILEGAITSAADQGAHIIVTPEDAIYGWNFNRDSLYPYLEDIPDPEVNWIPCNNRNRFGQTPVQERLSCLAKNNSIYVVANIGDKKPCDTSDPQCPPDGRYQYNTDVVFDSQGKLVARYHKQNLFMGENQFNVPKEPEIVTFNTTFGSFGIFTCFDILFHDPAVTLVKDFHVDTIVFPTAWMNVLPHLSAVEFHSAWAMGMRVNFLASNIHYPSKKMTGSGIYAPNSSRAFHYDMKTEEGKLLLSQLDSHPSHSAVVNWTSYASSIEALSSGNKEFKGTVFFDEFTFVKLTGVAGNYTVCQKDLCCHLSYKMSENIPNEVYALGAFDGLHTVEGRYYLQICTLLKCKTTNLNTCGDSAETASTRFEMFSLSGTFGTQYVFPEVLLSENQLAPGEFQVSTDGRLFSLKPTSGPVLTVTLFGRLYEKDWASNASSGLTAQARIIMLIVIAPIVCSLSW
Nature of the experiment: Inhibition of human vanin-1 in whole blood. Type of experiment: tissue-based.
In the case of `CC(C)(C)Nc1ccc(C(=O)N2CC(C)(c3ccccn3)C2)cn1`, the pIC50 was 8.57.

`CC(C)(C)Nc1ccc(C(=O)N2CC[C@H](N3CCOC3=O)C2)cn1`: the pIC50 is 8.40.

Consider `CN(C(=O)C1CC(F)(F)C1)[C@H]1CCN(C(=O)c2ccc(NC(C)(C)C)nc2)C1`, for which the pIC50 is 8.44. Under `CN(C(=O)[C@@H]1CCCO1)[C@H]1CCN(C(=O)c2ccc(NC(C)(C)C)nc2)C1` stands 8.57; under `CCC(C)(C)Nc1ccc(C(=O)N2CC[C@H](N(C)C(C)=O)C2)cn1`, 8.51; under `CC(=O)N(C)[C@H]1CCN(C(=O)c2ccc(NC(C)(C)CCO)nc2)C1`, 8.80.

Source of the values: ChEMBL document CHEMBL4725410, “Novel Heteroaromatic Compounds as Vanin Inhibitors” (ACS Med Chem Lett, 2020).
